Common to all, as to assay: KINOMEscan competitive binding, whole panel
The target of assay [1] is T1, panel of 203 kinases (Homo sapiens, UniProt P54760).
T1 construct: purchased DiscoverX (KINOMEscan)
T1 sequence (P54760 16-987): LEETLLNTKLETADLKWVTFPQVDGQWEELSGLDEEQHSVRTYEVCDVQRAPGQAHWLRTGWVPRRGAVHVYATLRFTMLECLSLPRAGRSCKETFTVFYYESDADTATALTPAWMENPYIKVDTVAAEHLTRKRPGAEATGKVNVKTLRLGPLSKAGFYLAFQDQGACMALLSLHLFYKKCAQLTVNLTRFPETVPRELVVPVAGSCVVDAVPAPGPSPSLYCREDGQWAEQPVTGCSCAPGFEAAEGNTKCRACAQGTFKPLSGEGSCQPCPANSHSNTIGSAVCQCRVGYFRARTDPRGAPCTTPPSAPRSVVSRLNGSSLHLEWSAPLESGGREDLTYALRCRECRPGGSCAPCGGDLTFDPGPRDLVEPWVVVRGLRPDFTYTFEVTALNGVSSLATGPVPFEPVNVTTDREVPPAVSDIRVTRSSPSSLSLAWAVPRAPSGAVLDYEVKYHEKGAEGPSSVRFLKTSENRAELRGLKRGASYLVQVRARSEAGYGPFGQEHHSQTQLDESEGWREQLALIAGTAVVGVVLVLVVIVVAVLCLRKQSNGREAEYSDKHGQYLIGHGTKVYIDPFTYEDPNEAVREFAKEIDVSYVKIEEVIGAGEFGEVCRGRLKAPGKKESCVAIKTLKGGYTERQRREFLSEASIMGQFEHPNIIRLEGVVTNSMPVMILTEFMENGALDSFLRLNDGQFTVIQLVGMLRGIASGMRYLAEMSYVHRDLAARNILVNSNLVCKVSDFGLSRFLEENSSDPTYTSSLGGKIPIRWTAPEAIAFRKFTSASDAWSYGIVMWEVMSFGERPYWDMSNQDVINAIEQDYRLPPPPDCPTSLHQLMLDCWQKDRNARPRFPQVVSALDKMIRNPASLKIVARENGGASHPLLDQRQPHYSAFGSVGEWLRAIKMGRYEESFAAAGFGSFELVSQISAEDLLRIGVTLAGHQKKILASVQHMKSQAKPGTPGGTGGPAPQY
As to conditions: 10 µM, n=1; kinase EPHB4; read-out: Percent inhibition EPHB4. In outline:
(§1)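 First, kinases were produced as T7 bacteriophage fusion proteins. Then compounds were added to compete them off probe ligands immobilized on a solid support at the ATP site. Finally, bound kinase was measured and converted to percentage inhibition.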

Assay [2] addresses T2, panel of 203 kinases (Homo sapiens, UniProt Q09013).
T2 construct: purchased DiscoverX (KINOMEscan)
T2 sequence (Q09013 1-629): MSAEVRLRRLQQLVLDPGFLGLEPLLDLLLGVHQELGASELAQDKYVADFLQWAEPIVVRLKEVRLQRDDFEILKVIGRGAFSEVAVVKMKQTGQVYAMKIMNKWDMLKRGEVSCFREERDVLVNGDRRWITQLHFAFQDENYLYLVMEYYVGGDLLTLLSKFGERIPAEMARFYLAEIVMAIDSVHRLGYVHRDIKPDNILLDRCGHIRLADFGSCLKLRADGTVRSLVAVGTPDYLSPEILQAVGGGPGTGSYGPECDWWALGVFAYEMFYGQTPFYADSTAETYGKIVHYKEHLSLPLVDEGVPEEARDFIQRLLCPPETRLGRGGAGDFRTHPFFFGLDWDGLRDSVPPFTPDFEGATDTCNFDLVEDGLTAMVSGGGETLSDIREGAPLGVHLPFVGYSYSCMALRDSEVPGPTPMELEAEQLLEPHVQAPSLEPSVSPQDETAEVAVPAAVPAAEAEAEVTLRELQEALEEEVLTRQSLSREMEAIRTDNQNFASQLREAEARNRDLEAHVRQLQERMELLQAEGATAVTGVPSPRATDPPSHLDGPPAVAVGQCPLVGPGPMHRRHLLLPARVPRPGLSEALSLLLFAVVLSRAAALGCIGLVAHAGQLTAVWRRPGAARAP
The following applies: 10 µM, n=1; kinase DMPK; read-out: Percent inhibition DMPK. In outline:
as §1

For assay [3], the target named is T3, panel of 203 kinases (Homo sapiens, UniProt P21709).
T3 construct: purchased DiscoverX (KINOMEscan)
T3 sequence (P21709 26-976): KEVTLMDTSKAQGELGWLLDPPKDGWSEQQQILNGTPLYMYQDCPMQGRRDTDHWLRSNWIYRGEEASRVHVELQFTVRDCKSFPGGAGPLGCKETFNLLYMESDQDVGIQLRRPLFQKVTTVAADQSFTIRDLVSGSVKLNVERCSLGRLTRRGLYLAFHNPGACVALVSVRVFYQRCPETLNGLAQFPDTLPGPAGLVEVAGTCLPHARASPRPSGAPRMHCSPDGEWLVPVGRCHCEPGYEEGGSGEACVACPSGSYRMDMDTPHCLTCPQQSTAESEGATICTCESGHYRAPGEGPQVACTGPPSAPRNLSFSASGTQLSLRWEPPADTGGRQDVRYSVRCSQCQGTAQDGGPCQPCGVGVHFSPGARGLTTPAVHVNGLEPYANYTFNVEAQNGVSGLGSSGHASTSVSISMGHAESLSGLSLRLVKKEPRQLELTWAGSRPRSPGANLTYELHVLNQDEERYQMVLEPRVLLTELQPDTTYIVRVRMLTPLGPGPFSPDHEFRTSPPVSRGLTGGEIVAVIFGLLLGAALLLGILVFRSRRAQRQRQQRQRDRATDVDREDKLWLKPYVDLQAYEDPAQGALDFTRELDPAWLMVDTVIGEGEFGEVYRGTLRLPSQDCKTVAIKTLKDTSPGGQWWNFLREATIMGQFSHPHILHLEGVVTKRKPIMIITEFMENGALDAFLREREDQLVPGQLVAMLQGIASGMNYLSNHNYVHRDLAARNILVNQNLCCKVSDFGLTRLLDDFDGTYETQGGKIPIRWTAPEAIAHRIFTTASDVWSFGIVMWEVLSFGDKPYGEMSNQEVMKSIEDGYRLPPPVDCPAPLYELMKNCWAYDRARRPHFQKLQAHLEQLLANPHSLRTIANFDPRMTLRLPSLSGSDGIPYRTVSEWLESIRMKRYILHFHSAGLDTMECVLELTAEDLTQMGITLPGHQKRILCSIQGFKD
As to conditions: 10 µM, n=1; kinase EPHA1; read-out: Percent inhibition EPHA1. A digest of the protocol:
as §1

The term inhibition denotes the drop in the measured response relative to a control, in per cent. As to `Cc1ccc(O)cc1Nc1ccnc(Nc2cccc(C(N)=O)c2)n1` [Compound 3], the inhibition at 10 µM worked out at 100% on panel of 203 kinases [1], 0% on panel of 203 kinases [2] and 100% on panel of 203 kinases [3].
With `Clc1ccc(Nc2ncc(-c3ccccc3)s2)cc1` [Compound 10], the inhibition at 10 µM at panel of 203 kinases [1], on panel of 203 kinases [2] and at panel of 203 kinases [3] was 0% in each case.
Take `c1ccc(COc2cccc(-c3ccnc4[nH]ccc34)c2)cc1` [Compound 9]: the inhibition at 10 µM at panel of 203 kinases [1], on panel of 203 kinases [2] and on panel of 203 kinases [3] was 0% throughout.
Take `Fc1cccc(COc2ccc(Nc3ncnc4c3CN(CCN3CCOCC3)CC4)cc2Cl)c1` [Compound 6]: the inhibition at 10 µM on panel of 203 kinases [1], at panel of 203 kinases [2] and at panel of 203 kinases [3] was 0% in each case.
For the compound `C[C@@H](Oc1cc(-c2cnc3ccccn23)sc1C(N)=O)c1ccccc1Cl` [Compound 8], the inhibition at 10 µM at panel of 203 kinases [1], at panel of 203 kinases [2] and on panel of 203 kinases [3] was 0% in each case.
For the compound `CN1CCN(c2ccc(Nc3nccc(-c4cnn5ncccc45)n3)cc2C#N)CC1` [Compound 1], the results for the inhibition at 10 µM on panel of 203 kinases [1], at panel of 203 kinases [2] and on panel of 203 kinases [3] were 0%, 0% and 94.3%, respectively.
With `Cc1ccc(O)cc1N(C)c1ccnc(Nc2cccc(S(N)(=O)=O)c2)n1` [Compound 4], the inhibition at 10 µM was 100% at panel of 203 kinases [1], 0% at panel of 203 kinases [2] and 100% at panel of 203 kinases [3].
As to `COc1ccc(Nc2nccc(-c3cnn4ncccc34)n2)cc1` [Compound 2], the figures for the inhibition at 10 µM at panel of 203 kinases [1], on panel of 203 kinases [2] and on panel of 203 kinases [3] were 0%, 0% and 92.5%, respectively.
In the case of `Nc1ncc2c(-c3ccncc3)c[nH]c2n1` [Compound 11], the inhibition at 10 µM on panel of 203 kinases [1], on panel of 203 kinases [2] and at panel of 203 kinases [3] was 0% throughout.
In the case of `COc1cc(Nc2nccc(-c3sc(N)nc3-c3cccc(NC(=O)c4c(F)cccc4F)c3)n2)cc(OC)c1OC` [Compound 7], the inhibition at 10 µM at panel of 203 kinases [1] was determined as 91.9%; at panel of 203 kinases [2] it was 87.5%; on panel of 203 kinases [3], 100%.

The values above are taken from publication PMC9927415, “Tyrosine Kinase Inhibitors Display Potent Activity against Cryptosporidium parvum” (Microbiology Spectrum, 2022).
